The text below walks through data of the PolyMetriX glass transition set.

Regarding `*C(=O)Nc1ccc(Cc2ccc(NC(=O)c3ccc4c(c3)C(=O)N(c3c(C)cc(-c5cc(C)c(N6C(=O)c7ccc(*)cc7C6=O)c(C)c5)cc3C)C4=O)c(C)c2)cc1C` (repeat unit), the glass transition temperature is 329.00 °C.

For `*C(=O)Nc1ccc(NC(=O)c2ccc3c(c2)C(=O)N(c2c(C)cc(C)c(N4C(=O)c5ccc(*)cc5C4=O)c2C)C3=O)cc1` (repeat unit), the glass transition temperature was determined as 327.00 °C.

As to `*C(=O)c1cc2c(cc1Cl)C(=O)N(c1cc(C(=O)O)cc(N3C(=O)c4cc(*)c(Cl)cc4C3=O)c1)C2=O` (repeat unit), the glass transition temperature was 368.00 °C.

`*C(=O)c1cc2c(cc1Cl)C(=O)N(c1cc(C(=O)OC)cc(N3C(=O)c4cc(*)c(Cl)cc4C3=O)c1)C2=O` (repeat unit) showed a glass transition temperature of 321.00 °C.

On to `*C(=O)c1ccc2c(c1)C(=O)N(c1c(C)cc(-c3cc(C)c(N4C(=O)c5ccc(*)cc5C4=O)c(C)c3)cc1C)C2=O` (repeat unit), for which the glass transition temperature is 310.00 °C.

`*C(=O)c1ccc2c(c1)C(=O)N(c1c(C)cc(C(c3cc(C(F)(F)F)cc(C(F)(F)F)c3)c3cc(C)c(N4C(=O)c5ccc(*)cc5C4=O)c(C)c3)cc1C)C2=O` (repeat unit) showed a glass transition temperature of 301.10 °C.

`*C(=O)c1ccc2c(c1)C(=O)N(c1c(C)cc(C(c3cc(C)c(N4C(=O)c5ccc(*)cc5C4=O)c(C)c3)c3cccc4ccccc34)cc1C)C2=O` (repeat unit) displayed a glass transition temperature of 318.00 °C.

Molecule `*C(=O)c1ccc2c(c1)C(=O)N(c1cc(C(=O)O)cc(N3C(=O)c4ccc(*)cc4C3=O)c1)C2=O` (repeat unit) registered a glass transition temperature of 314.00 °C.

The molecule `*C(=O)c1ccc2c(c1)C(=O)N(c1cc(C(=O)c3ccccc3)cc(N3C(=O)c4ccc(*)cc4C3=O)c1)C2=O` (repeat unit) returned a glass transition temperature of 282.00 °C.

Take `*C(=O)c1ccc2c(c1)C(=O)N(c1ccc(-c3ccccc3N3C(=O)c4ccc(*)cc4C3=O)cc1)C2=O` (repeat unit): the glass transition temperature is 305.00 °C.

The molecule `*C(=O)c1ccc2c(c1)C(=O)N(c1ccc(-c3nc(-c4ccccc4)nc(-c4ccc(N5C(=O)c6ccc(*)cc6C5=O)cc4)n3)cc1)C2=O` (repeat unit) yielded a glass transition temperature of 355.00 °C.

`*C(=O)c1ccc2c(c1)C(=O)N(c1ccc(C(c3ccccc3)(c3ccc(N4C(=O)c5ccc(*)cc5C4=O)cc3)C(F)(F)F)cc1)C2=O` (repeat unit): the glass transition temperature is 311.00 °C.

Regarding `*C(=O)c1ccc2c(c1)C(=O)N(c1ccc(C3(c4ccc(N5C(=O)c6ccc(*)cc6C5=O)cc4)c4ccccc4-c4ccccc43)cc1)C2=O` (repeat unit), the glass transition temperature worked out at 376.00 °C.

Molecule `*Cc1ccc2nc(-c3cc(-c4nc5ccc(*)cc5c(=O)o4)cc(N4C(=O)c5ccccc5C4=O)c3)oc(=O)c2c1` (repeat unit) came in with a glass transition temperature of 322.00 °C.

The molecule `*Oc1c(Br)cc(C(C)(C)c2cc(Br)c(OC(=O)c3cccc(C(*)=O)c3)c(Br)c2)cc1Br` (repeat unit) came in with a glass transition temperature of 115.00 °C.

Regarding `*Oc1c(F)c(F)c(-c2c(F)c(F)c(Oc3ccc(C(c4ccc(*)cc4)(C(F)(F)F)C(F)(F)F)cc3)c(F)c2F)c(F)c1F` (repeat unit), the glass transition temperature came to 167.00 °C.

In turn, `*Oc1c(F)c(F)c(S(=O)(=O)c2c(F)c(F)c(Oc3ccc(C(c4ccc(*)cc4)(C(F)(F)F)C(F)(F)F)cc3)c(F)c2F)c(F)c1F` (repeat unit) had a glass transition temperature of 182.00 °C.

On to `*Oc1c([2H])c([2H])c(S(=O)(=O)c2c([2H])c([2H])c(Oc3c([2H])c([2H])c(C(c4c([2H])c([2H])c(*)c([2H])c4[2H])(C([2H])([2H])[2H])C([2H])([2H])[2H])c([2H])c3[2H])c([2H])c2[2H])c([2H])c1[2H]` (repeat unit), for which the glass transition temperature was determined as 175.00 °C.

In the case of `*Sc1ccc(Sc2ccc(Sc3ccc4c(c3)C(=O)N(N3C(=O)c5ccc(*)cc5C3=O)C4=O)cc2)cc1` (repeat unit), the glass transition temperature was 223.50 °C.

In the case of `*Sc1ccc2c(c1)Sc1ccc(*)cc1S2` (repeat unit), the glass transition temperature is 209.90 °C.

Consider `*[Si](*)(C)c1ccc(COCCN(CC)c2ccc(/N=N/c3ccc([N+](=O)[O-])cc3)cc2)cc1` (repeat unit), for which the glass transition temperature is 152.00 °C.

In the case of `*[Si](*)(CCCC)CCCC` (repeat unit), the glass transition temperature was -40.50 °C.

Regarding `*[Si](*)(CCCC)CCCCC` (repeat unit), the glass transition temperature was -26.00 °C.

In turn, `*c1[nH]c2ccccc2c1*` (repeat unit) came in with a glass transition temperature of 137.00 °C.

`*c1c(C)cc(-c2cc(C)c(-n3c(=O)c4cc5c(=O)n(*)c(=O)c5cc4c3=O)c(C)c2)cc1C` (repeat unit) had a glass transition temperature of 340.00 °C.

For `*c1c(C)cc(C(c2cc(C(F)(F)F)cc(C(F)(F)F)c2)c2cc(C)c(N3C(=O)c4ccc(-c5ccc6c(c5)C(=O)N(*)C6=O)cc4C3=O)c(C)c2)cc1C` (repeat unit), the glass transition temperature was determined as 317.40 °C.

Regarding `*c1c(C)cc(C(c2cc(C)c(N3C(=O)c4ccc(-c5ccc6c(c5)C(=O)N(*)C6=O)cc4C3=O)c(C)c2)c2cccc3ccccc23)cc1C` (repeat unit), the glass transition temperature was 326.00 °C.

`*c1c(C)cc(C(c2cccc(C(F)(F)F)c2)c2cc(C)c(N3C(=O)c4ccc(-c5ccc6c(c5)C(=O)N(*)C6=O)cc4C3=O)c(C)c2)cc1C` (repeat unit) gave a glass transition temperature of 312.90 °C.

For `*c1c(C)cc(C(c2cccnc2)c2cc(C)c(N3C(=O)CC(Nc4ccc(Cc5ccc(NC6CC(=O)N(*)C6=O)cc5)cc4)C3=O)c(C)c2)cc1C` (repeat unit), the glass transition temperature came to 219.00 °C.

As for `*c1c(C)cc(C)c(N2C(=O)c3ccc(S(=O)(=O)c4ccc5c(c4)C(=O)N(*)C5=O)cc3C2=O)c1C` (repeat unit), the glass transition temperature was found to be 418.00 °C.

Consider `*c1cc(-c2nc3ccccc3[nH]2)cc(-n2c(=O)c3cc4c(=O)n(*)c(=O)c4cc3c2=O)c1` (repeat unit), for which the glass transition temperature stood at 180.00 °C.

In the case of `*c1cc(-n2c(=O)c3cc4c(=O)n(*)c(=O)c4cc3c2=O)c(O)cc1O` (repeat unit), the glass transition temperature was found to be 362.00 °C.

`*c1cc(/N=N/c2ccc(C#N)cc2)cc(*)c1O` (repeat unit): the glass transition temperature worked out at 176.00 °C.

Take `*c1cc(Br)c(-c2c(Br)cc(N3C(=O)c4ccc(-c5ccc6c(c5)C(=O)N(*)C6=O)cc4C3=O)cc2C(=O)OCCCCCC)c(C(=O)OCCCCCC)c1` (repeat unit): the glass transition temperature is 154.00 °C.

As for `*c1cc(Br)c(-c2c(Br)cc(N3C(=O)c4ccc(-c5ccc6c(c5)C(=O)N(*)C6=O)cc4C3=O)cc2C(=O)OCCCCCCCCCCCC)c(C(=O)OCCCCCCCCCCCC)c1` (repeat unit), the glass transition temperature turned out to be 108.00 °C.

Molecule `*c1cc(Br)c(-c2c(Br)cc(N3C(=O)c4ccc(-c5ccc6c(c5)C(=O)N(*)C6=O)cc4C3=O)cc2C(=O)OCCCCCCCCCCCCCC)c(C(=O)OCCCCCCCCCCCCCC)c1` (repeat unit) showed a glass transition temperature of 98.00 °C.

Take `*c1cc(C(=O)NCCCC)cc(N2C(=O)c3ccc(-c4ccc5c(c4)C(=O)N(*)C5=O)cc3C2=O)c1` (repeat unit): the glass transition temperature stood at 291.00 °C.

Take `*c1cc(C(=O)OCC(F)(F)C(F)(F)C(F)(F)F)c(*)s1` (repeat unit): the glass transition temperature was 129.00 °C.

Turning to `*c1cc(C(=O)OCC)cc(N2C(=O)CC(C3Cc4ccccc4C4C(=O)N(*)C(=O)C43)C2=O)c1` (repeat unit), the glass transition temperature stood at 254.00 °C.

Take `*c1cc(C(=O)OCCC)cc(N2C(=O)CC(C3Cc4ccccc4C4C(=O)N(*)C(=O)C43)C2=O)c1` (repeat unit): the glass transition temperature was determined as 249.00 °C.

The molecule `*c1cc(C(=O)OCCCCCC)cc(N2C(=O)CC(C3Cc4ccccc4C4C(=O)N(*)C(=O)C43)C2=O)c1` (repeat unit) showed a glass transition temperature of 187.00 °C.

`*c1cc(C(=O)OCCCCCCCCCCOc2ccc(-c3ccc(OC(=O)c4ccc(OCC(F)CCCCCC)cc4)cc3)cc2)c(*)s1` (repeat unit) gave a glass transition temperature of 151.00 °C.

In turn, `*c1cc(C)c(/N=C/c2ccc(OCc3ccc(COc4ccc(/C=N/c5cc(C)c(N6C(=O)c7ccc8c9ccc%10c%11c(ccc(c%12ccc(c7c8%12)C6=O)c%119)C(=O)N(*)C%10=O)cc5C)cc4)cc3)cc2)cc1C` (repeat unit) came in with a glass transition temperature of 130.00 °C.

Consider `*c1ccc(N2C(=O)c3ccc(C(=O)c4ccc5c(c4)C(=O)N(c4ccc(-c6nc7cc(-c8ccc9nc(-c%10ccccc%10)c(*)nc9c8)ccc7nc6-c6ccccc6)cc4)C5=O)cc3C2=O)cc1` (repeat unit), for which the glass transition temperature came out at 260.00 °C.

In turn, `*c1ccc(Sc2cc3c(cc2Sc2ccc(N4C(=O)c5ccc(Oc6ccc7c(c6)C(=O)N(*)C7=O)cc5C4=O)cc2)C(=O)N(c2ccc(CC)cc2)C3=O)cc1` (repeat unit) displayed a glass transition temperature of 271.00 °C.

In turn, `*c1ccc(Sc2ccc(Sc3ccc(Sc4ccc(N5C(=O)c6ccc(Sc7ccc(Sc8ccc(Sc9ccc%10c(c9)C(=O)N(*)C%10=O)cc8)cc7)cc6C5=O)cc4)cc3)cc2)cc1` (repeat unit) gave a glass transition temperature of 176.5 °C.

On to `*c1ccc(Sc2ccc(Sc3ccc(Sc4ccc(Sc5ccc(N6C(=O)c7ccc(Sc8ccc(Sc9ccc(Sc%10ccc%11c(c%10)C(=O)N(*)C%11=O)cc9)cc8)cc7C6=O)cc5)s4)s3)s2)cc1` (repeat unit), for which the glass transition temperature came out at 177.00 °C.

The molecule `*c1ccc2c(c1)C(=O)N(c1c(C)cc(-c3cc(C)c(-c4cc(C)c(N5C(=O)c6ccc(C(*)(C(F)(F)F)C(F)(F)F)cc6C5=O)c(C)c4)cc3C)cc1C)C2=O` (repeat unit) displayed a glass transition temperature of 361.00 °C.

In the case of `*c1ccc2c(c1)C(=O)N(c1c(C)cc(C)c(N3C(=O)c4ccc(C(*)(C(F)(F)F)C(F)(F)F)cc4C3=O)c1C)C2=O` (repeat unit), the glass transition temperature turned out to be 377.00 °C.

`*c1ccc2c(c1)C(=O)N(c1c(C)cc(C3(c4cc(C)c(N5C(=O)c6ccc(C(*)(C(F)(F)F)C(F)(F)F)cc6C5=O)c(C(C)C)c4)c4ccccc4-c4ccccc43)cc1C(C)C)C2=O` (repeat unit) had a glass transition temperature of 335.00 °C.

Regarding `*c1ccc2c(c1)C(=O)N(c1cc(C(=O)O)cc(N3C(=O)c4ccc(C(*)(C(F)(F)F)C(F)(F)F)cc4C3=O)c1)C2=O` (repeat unit), the glass transition temperature worked out at 366.50 °C.
